In PubChem BioAssay (NCI):
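Results reflect a 48-hour exposure of cells in 96-well plates to compound at five concentrations. At the TGI there is no net growth.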

Legend:
Test in all cases: NCI tumour cell line growth inhibition, 48 h
P388 leukemia = tested on: P388 leukemia
P388/ADR leukemia = tested on: P388/ADR leukemia
RXF-631 renal = tested on: RXF-631 renal

Structure (SMILES)	TGI (P388 leukemia) [µM]	TGI (P388/ADR leukemia) [µM]	TGI (RXF-631 renal) [µM]
Cn1c2ccccc2c(=O)c2c(O)cc3c(c21)C=CC(C)(C)O3	> 25	> 25	–
CSCSCC(CO)NC(=O)/C(C)=C\c1c(C)[nH]c(=O)[nH]c1=O (stereo not given)	> 250	> 250	–
COc1nc(N)c(NC(C)=O)c(=O)n1C	–	–	> 100
